The results in this text go back to patent US20190038597A1, “PREVENTION OF VASCULAR AND CARDIAC FIBROSIS VIA IRE1ALPHA INHIBITION” (McMaster University, priority 2017, published 2019).

Assay [1] deals with VSMCs. The assay is described as follows: Picro-Sirius Red assay of collagen synthesis in VSMCs. In kind it is cell-based, rat. Here is the method:
(§1) VSMCs were cultured in DMEM/F12 containing 1% FBS. Confluent cells were treated with L-ascorbic acid-2-phosphate (100 μg/ml) and either TGF-β1 (5 ng/ml) or Ang II (1 μM). (A) Agarose gel for assessment of TGF-β1-induced XBP1 splicing in VSMCs after 24 h. (B) Picro-Sirius Red assay for measurement of collagen deposition induced by combined TGF-β1 and AA2P treatment after 72 h, and inhibition by 4μ8c and STF-083010. (C) Western blot for assessment of collagen chaperone expression after treatment of TGF-β1 and 4μ8c for 48 h. *, p<0.05. (D) Measurement of Ang II-induced collagen production and inhibition by 4μ8c and STF-083010 after 72 h.
VSMCs were isolated from the aortas of 5-week old WKY rats using the explant method^29. The thoracic aorta was removed from the animal and placed in ice-cold 5× Antibiotics-Antimycotics solution (ThermoFisher). The adventitia was gently removed and the aorta was cut longitudinally. The endothelial layer was removed by gentle scraping with forceps. The aorta was cut into 3 mm^2 squares and placed on a 6 well plate in DMEM/F12 medium containing 10% fetal bovine serum (FBS). Explants were incubated undisturbed in a 5% CO2 incubator at 37° C. for 1 week and then passaged. Sprague-Dawley renal fibroblasts were purchased (Cell Biologics) and cultured in low glucose DMEM/F12 medium containing 10% FBS, streptomycin (100 μgimp, and penicillin (100 U/ml, Invitrogen, Burlington, ON). Cells between passages 5 and 10 were used for experiments. Cells were cultured in medium containing 1% FBS overnight before treatment.
Collagen synthesis was measured using a Picro-Sirius Red-based assay as previously described^30. Briefly, cells cultured on a 96 well plate were fixed in methanol for 10 minutes at −20° C. Cells were washed once with PBS and incubated with Picrosirius Red stain (0.1% Direct Red 80 in saturated picric acid) for 1 h at room temperature. After the staining solution was removed, the cells were washed three times with 0.1% acetic acid and then imaged. The dye was then eluted with 0.1 N NaOH for 10 minutes on a rocking platform. Absorbance at 540 nm was measured using a Spectramax Plus Microplate Reader (Molecular Devices).
Cells were co-treated with either 4μ8c or S′TF-083010 to inhibit IRE1α endonuclease activity. TGF-β1 induced XBP1 splicing after 24 h, which was blocked by co-treatment with 4μ8c (FIG. 2A). Collagen production was measured using a Picro-Sirius Red-based colorimetric assay. TGF-β1 combined with AA2P induced collagen synthesis in the VSMCs, which was inhibited by co-treatment with 4μ8c or STF-083010 (FIG. 2B).

In assay [2] the test system is SHR/L-NAME model of hypertension. The assay is described as follows: Cardiac hypertrophy and fibrosis in L-NAME-treated SHRs. It counts as in vivo, rat. The protocol: 12-14 week old male SHRs were randomized to receive vehicle, L-NAME (50 mg/L) or L-NAME and 4μ8c (2.5 mg/kg/day i.p.) for 18 days. (A) Cardiac hypertrophy measured using heart weight to body ratio. (B) Quantification of Picro-Sirius Red-stained area in heart tissue. (C) Picro-Sirius Red staining of transverse heart sections. Bar: 4×, 500 μm; 20×, 200 μm. Data is presented as mean±SEM. *, p<0.05 vs. NT. #, p<0.05 vs L-NAME.
12-14 week old male SHRs were used to determine the effect of pharmacological IRE1α inhibition on L-NAME-induced vascular stiffening. They were maintained on a 12-hour light-dark cycle with rat chow and water ad libitium. Animals were implanted with radio-telemetry devices (Data Science International, St. Paul, Minn., USA) one week before the start of the study. Animals were randomized into one of three groups (n=6 per group): 1) No treatment, 2) L-NAME (50 mg/L in drinking water, Sigma-Aldrich), or 3) L-NAME+4μ8c (2.5 mg/kg/day i.p., Millipore). 4μ8c was administered in a vehicle of 10% DMSO, 10% Tween-80 and 80% normal saline. Animals in Group 2 received daily injections of the vehicle. All animals were fed a normal chow diet. […]
Tissues were fixed in 4% paraformaldehyde and subsequently embedded in paraffin. […] Collagen area density was calculated by dividing the PSR-stained area by the total area of the vessel.

Assay [3] relates to GRP78, GRP94 and PDI. The assay is described as follows: Western blot of ER chaperone / ER stress marker expression in VSMCs. In kind it is cell-based, rat. Here is the method:
VSMCs were treated with tunicamycin (1 μg/ml) and either 4μ8c (30 μM) or STF-083010 (60 μM) for 6 h or 24 h. (A) Agarose gel for assessment of XBP1 splicing after 6 h of treatment with tunicamycin and densitometric quantification. (B) Western blot for assessment of ER chaperone expression after 24 h tunicamycin treatment with or without inhibition of IRE1α by 4μ8c. Data is presented as mean±SEM. *, p<0.05 vs. Vehicle; #, p<0.05 vs. Tm.
as §1
VSMCs were isolated from the aortas of 5-week old WKY rats using the explant method^29. The thoracic aorta was removed from the animal and placed in ice-cold 5× Antibiotics-Antimycotics solution (ThermoFisher). The adventitia was gently removed and the aorta was cut longitudinally. The endothelial layer was removed by gentle scraping with forceps. The aorta was cut into 3 mm^2 squares and placed on a 6 well plate in DMEM/F12 medium containing 10% fetal bovine serum (FBS). Explants were incubated undisturbed in a 5% CO2 incubator at 37° C. for 1 week and then passaged. […]
Cells were lysed in 1× Laemmli buffer and protein content was quantified using the BioRad DC Protein Assay (BioRad, Mississauga, Canada). […]

With `Cc1cc(=O)oc2c(C=O)c(O)ccc12` [4μ8c, 7-Hydroxy-4-methyl-2-oxo-2H-chromene-8-carbaldehyde], the “collagen synthesis induced by TGF-β1 combined with AA2P” value in assay [1] (72 h, co-treatment, FIG. 2B) is recorded as “inhibited”. For the same compound, the “collagen synthesis induced by Ang II” value in assay [1] (Ang II (1 μM) 72 h, FIG. 2D) was “blocked”. Also, the “fibrosis in the left and right ventricles by PSR staining” value in assay [2] (4μ8c-treated animals vs L-NAME group, FIGS. 7B and 7C) is “significantly reduced”. The “cardiac hypertrophy (heart weight to body weight ratio)” value in assay [2] (L-NAME+4μ8c group, 18 days, FIG. 7A) stood at 4.293±0.438 mg HW/g BW. In assay [3] (24 h tunicamycin treatment, FIG. 1B), the “elevated expression levels of ER stress markers GRP78, GRP94 and PDI” value was “reduced”. Also, in assay [3] (TGF-β1 48 h, FIG. 2C), the “TGF-β1-increased expression of collagen chaperones and ER stress markers GRP78, GRP94 and PDI” value is listed as “lowered”.
